{"source": "paper PMC3236199", "about": "“Development of Derivatives of 3, 3′-Diindolylmethane as Potent Leishmania donovani Bi-Subunit Topoisomerase IB Poisons” (PLoS ONE, 2011)"}
{"system": "DIM resistant L. donovani promastigotes (DR50)", "assay": "Cell viability assay, DIM resistant promastigotes", "assay_type": "cell-based", "conditions": "Leishmania donovani, 12 h, read-out: growth inhibited", "method": "(§1) L. donovani strain AG83 and DIM resistant parasite DR50 promastigotes were grown at 22°C in M199 liquid media supplemented with 10% FBS as described. Axenic amastigotes were cultured in modified M199 medium (pH 5.3) supplemented with 10 mM sodium succinate, 40 mM HEPES and 25% FCS and maintained at 37°C with 5% CO2.The effect of drugs on the viability of Leishmania parasites was determined by direct microscopic counting using light microscope (40× objective) in a haemocytometer. The cells at the exponential phase were collected and transferred into 24-well plate (3.5×10^6 cells per well). The cells were then incubated for 12 h in the presence of various concentrations of DIM, DPDIM, DMDIM and DMODIM (1, 5, 10, 20 and 50 µM). For other experiments, 10^4 cells were taken and grown in presence of the respective derivatives for a period of 30 days. For each 5 day interval, a small amount of aliquots were taken out. After incubation the cells were centrifuged and cell pellet was washed with PBS (1×) twice and finally suspended in 1 ml PBS (1×). Fifty µl of aliquot was taken, mixed with 0.4% trypan blue solution and incubated for 3 min at 22°C. One drop of the mixture was transferred to haemocytometer and the clear (live) and blue (dead) cells were counted. The total number of viable cells in aliquot was calculated by multiplying the total number of viable cells by 2 (the dilution factor for trypan blue). To obtain the total number of cells in the aliquot, total number of viable and nonviable cells were added up and multiplied by 2. Percentages of viable cells were calculated using the formula: [drawing 1]\nThe effects of different derivatives of DIM on cell proliferation were tested by incubating wild type and DIM resistant L. donovani promastigotes (3.5×10^6 cells/ml) with the drugs. […] The number of live promastigotes was measured by differential staining of live and dead cells using light microscope under 40× objective (Fig. 2). […]\nFigure 2 Effect of DIM-derivatives on Leishmania parasites. Growth of L. donovani AG83 promastigotes (A) and DIM resistant promastigotes (B) were monitored in presence of increasing concentrations (1, 5, 10, 20 and 50 µM) of DIM, DPDIM, DMDIM and DMODIM for 12 h. […] Change in IC50 values after a prolong exposure to DIM derivatives (C) has been assessed as described in Materials and Methods. After every 5 day a small aliquot was taken out and number of viable promastigotes was counted for each concentration. IC50 values have been determined from them using Graph Pad Prsim ver 5.0 software and a graphical plot was generated over time. Growth of the parasites treated with the compounds was expressed as percentage of the viable promastigotes compared with that of control. […]", "units": {"inhibition at 20 µM": "%"}}
{"smiles": "Cc1[nH]c2ccccc2c1Cc1c(C)[nH]c2ccccc12", "note": "[DMDIM, 2,2′-dimethyl 3,3′-diindolyl methane]", "inhibition at 20 µM": 85}
{"smiles": "c1ccc(-c2[nH]c3ccccc3c2Cc2c(-c3ccccc3)[nH]c3ccccc23)cc1", "note": "[DPDIM, 2,2′-diphenyl 3,3′-diindolyl methane]", "inhibition at 20 µM": 90}
{"smiles": "c1ccc2c(Cc3c[nH]c4ccccc34)c[nH]c2c1", "note": "[DIM, 3, 3′-diindolyl methane, reference compound]", "inhibition at 20 µM": 20}
{"smiles": "COc1ccc2[nH]cc(Cc3c[nH]c4ccc(OC)cc34)c2c1", "note": "[DMODIM, 5,5′-dimethoxy 3,3′-diindolyl methane]", "inhibition at 20 µM": 65}
{"system": "DIM resistant L. donovani axenic amastigotes", "assay": "Cell viability assay, DIM resistant axenic amastigotes", "assay_type": "cell-based", "conditions": "Leishmania donovani, 12 h, read-out: growth inhibited", "method": "as §1, with “To obtain the total number of cells in the aliquot, total number of viable and nonviable cells were added up and multiplied by 2.” left out\nFigure 3 Effectiveness of clearance of internalized L. donovani (AG83) from in vitro infected mouse M [drawing 3] . […] Cells were fixed, stained with Giemsa and counted under bright field microscope. […] Experiments were carried out for three times and representative results are the mean ± S.D. (B) Growth of DIM resistant L. donovani axenic amastigotes were monitored in presence of increasing concentrations (2, 5, 10, 20 and 50 µM) of DIM, DPDIM, DMDIM and DMODIM for 12 h. […] Growth of the parasites treated with the compounds was expressed as percentage of the viable promastigotes compared with that of control. […]", "units": {"inhibition at 50 µM": "%"}}
{"smiles": "Cc1[nH]c2ccccc2c1Cc1c(C)[nH]c2ccccc12", "note": "[DMDIM, 2,2′-dimethyl 3,3′-diindolyl methane]", "inhibition at 50 µM": 92}
{"smiles": "c1ccc(-c2[nH]c3ccccc3c2Cc2c(-c3ccccc3)[nH]c3ccccc23)cc1", "note": "[DPDIM, 2,2′-diphenyl 3,3′-diindolyl methane]", "inhibition at 50 µM": 98}
{"smiles": "COc1ccc2[nH]cc(Cc3c[nH]c4ccc(OC)cc34)c2c1", "note": "[DMODIM, 5,5′-dimethoxy 3,3′-diindolyl methane]", "inhibition at 50 µM": 79}
